pIC50: −log10 of the molar value.
System: 454973-116-R2-J3-PDC spheroids, viability, % test/control
Assay: Anticancer human tumor 454973-116-R2-J3-PDC patient-derived pancreatic carcinoma cell line growth inhibition [GQUAD]
Details: spheroids with HUVEC and MSC; for pIC50: curve of first compound; for viability, T/C: stronger effect = lower value
Source text: DNA G-quadruplex Stabilizer Agents in Combinations in Complex Spheroids
A high-throughput screen of multi-cell type tumor spheroids was designed to identify active combinations of DNA G-quadruplex stabilizer agents and targeted small molecules. Complex spheroids include a stromal component modeled by human endothelial cells (HUVEC) and fibroblasts modeled by human mesenchymal stem cells (MSCs). The concentration ranges selected for each drug and investigational agent were based upon clinically achievable concentrations if the clinical Cmax of the agent was known.
Compounds. The drugs and investigational agents: pidnarulex (CX-5461; NSC782164), APTO-253 (NSC789042), BRACO-19 (NSC847499), peposertib (NSC802822), ceralasertib (NSC780249), elimusertib (NSC800525), camonsertib (NSC841442), AZD-1390 (NSC803789), olaparib (NSC753686), talazoparib (NSC767125), ART-558 (NSC835418), sotorasib (NSC818433), MRTX-1133 (NSC836407), SN-38 (NSC673596), topotecan (NSC609699), etoposide (NSC141540), doxorubicin (NSC123127), gemcitabine (NSC613327), 5-fluorouracil (NSC19893), paclitaxel (NSC125973), vemurafenib (NSC761431), panobinostat (NSC761190), R-306465 (JNJ-16241199; NSC773264), adavosertib (NSC754352), TP-3654 (NSC805149), carboplatin (NSC241240), KSQ-4279 (NSC840948), and staurosporine (NSC755774) were obtained from the National Cancer Institute (NCI) Developmental Therapeutics Program Chemical Repository (34). The FDA-approved anticancer drug set is available from the NCI Developmental Therapeutics Program. […] The stock solutions were prepared in dimethyl sulfoxide (DMSO, Sigma-Aldrich, St. Louis, MO, cat. D2650) at 800-fold the tested concentration and stored at -70 degrees C prior to their use. All drugs and investigational agents were tested over a range starting from a high concentration at or near the clinical Cmax and decreasing in half-log increments. If the clinical Cmax for an agent had not been determined, the highest concentration tested was 10 microM.
2.3 Cell Culture. All cells were maintained in an incubator at 37 degrees C and 5% CO2 with 95% humidity. The PDC lines were cultured according to standard operating procedures established by the NCI PDMR. All PDCs were thawed and cultured in Matrigel-coated flasks prepared with a working solution of 1X Ham's F-12 nutrient mix, without supplementation (Invitrogen, cat. 11765054), 100 U/mL penicillin-streptomycin (Invitrogen, cat. 15140122), and 2.5% Matrigel (Corning Inc., cat. 354248) for the first three passages. The 857933-349-R-J2-PDC line was cultured in 6C/Colon 1B media, which includes advanced DMEM/F-12 (Thermo Fisher Scientific, cat. 12634028), 10 mM HEPES (Thermo Fisher Scientific, cat. 15630080), 1X GlutaMAX supplement (Thermo Fisher Scientific, cat. 35050061), 0.1 mg/mL primocin (InvivoGen, cat. ant-pm-2), 10% defined fetal bovine serum, heat inactivated (HyClone Laboratories Inc., cat. SH30070.03HI), 50% L-WRN conditioned media (ATCC, cat. CRL-3276), 1.25 mM N-Acetyl-L-cysteine (Sigma-Aldrich, cat. A9165), 10 mM nicotinamide (Sigma-Aldrich, cat. N0636), 1X B-27 supplement (Thermo Fisher Scientific, cat. 17504044), 1X N-2 supplement (Thermo Fisher Scientific, cat. 17502048), 10 microM Y-27632 dihydrochloride (Tocris Bioscience, cat. 1254), and 50 ng/mL human EGF recombinant protein (Thermo Fisher Scientific, cat. PHG0311). The 485176-168-R4-J1-PDC line was cultured in Panc media, which includes all 6C/Colon 1B media components plus 100 ng/mL human FGF-10 (Thermo Fisher Scientific, cat. 100-26), 500 nM SB-431542 (Selleckchem, cat. S1067), and gastrin (Tocris, cat. 3006).
[…]
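Also: spheroids exposed to compounds for seven days.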

CC1COCCN1c1cc(C2(O)CC3CCC(C2)O3)c2cnn(-c3ccn[nH]3)c2n1 (configuration not stated) + Cc1[nH]c2ccc(F)cc2c1-c1nc2c3cccnc3c3ncccc3c2[nH]1
pIC50 (second compound 0.0316 µM): 6.81 | pIC50 (second compound 0.1 µM): 6.85 | pIC50 (second compound 0.316 µM): 6.79 | pIC50 (second compound 1 µM): 6.85 | pIC50 (second compound 3.16 µM): 6.84 | pIC50 (second compound 10 µM): 6.94 | viability, T/C (second compound 0.0316 µM, first compound 0.0316 µM): 95.9% | viability, T/C (second compound 0.0316 µM, first compound 0.1 µM): 62.1% | viability, T/C (second compound 0.0316 µM, first compound 0.316 µM): 29.9% | viability, T/C (second compound 0.0316 µM, first compound 1 µM): 21.7% | viability, T/C (second compound 0.0316 µM, first compound 3.16 µM): 24.1% | viability, T/C (second compound 0.0316 µM, first compound 10 µM): 12.3% | viability, T/C (second compound 0.1 µM, first compound 0.0316 µM): 87% | viability, T/C (second compound 0.1 µM, first compound 0.1 µM): 58.9% | viability, T/C (second compound 0.1 µM, first compound 0.316 µM): 28.9% | viability, T/C (second compound 0.1 µM, first compound 1 µM): 21.3% | viability, T/C (second compound 0.1 µM, first compound 3.16 µM): 21.8% | viability, T/C (second compound 0.1 µM, first compound 10 µM): 10.4% | viability, T/C (second compound 0.316 µM, first compound 0.0316 µM): 91.6% | viability, T/C (second compound 0.316 µM, first compound 0.1 µM): 66.4% | viability, T/C (second compound 0.316 µM, first compound 0.316 µM): 27.7% | viability, T/C (second compound 0.316 µM, first compound 1 µM): 20% | viability, T/C (second compound 0.316 µM, first compound 3.16 µM): 21.6% | viability, T/C (second compound 0.316 µM, first compound 10 µM): 13.5% | viability, T/C (second compound 1 µM, first compound 0.0316 µM): 93.5% | viability, T/C (second compound 1 µM, first compound 0.1 µM): 58.1% | viability, T/C (second compound 1 µM, first compound 0.316 µM): 30.6% | viability, T/C (second compound 1 µM, first compound 1 µM): 19.9% | viability, T/C (second compound 1 µM, first compound 3.16 µM): 21.8% | viability, T/C (second compound 1 µM, first compound 10 µM): 13.2% | viability, T/C (second compound 3.16 µM, first compound 0.0316 µM): 88.5% | viability, T/C (second compound 3.16 µM, first compound 0.1 µM): 58.3% | viability, T/C (second compound 3.16 µM, first compound 0.316 µM): 31.7% | viability, T/C (second compound 3.16 µM, first compound 1 µM): 21.8% | viability, T/C (second compound 3.16 µM, first compound 3.16 µM): 21.6% | viability, T/C (second compound 3.16 µM, first compound 10 µM): 12.6% | viability, T/C (second compound 10 µM, first compound 0.0316 µM): 79.5% | viability, T/C (second compound 10 µM, first compound 0.1 µM): 53.6% | viability, T/C (second compound 10 µM, first compound 0.316 µM): 26.2% | viability, T/C (second compound 10 µM, first compound 1 µM): 22.4% | viability, T/C (second compound 10 µM, first compound 3.16 µM): 20.3% | viability, T/C (second compound 10 µM, first compound 10 µM): 12.6%

Reference: PubChem BioAssay AID2060508 (Molecular Pharmacology Branch, DTP, NCI, 2025)
